Test results: patent US10842794B2, “Use of Sigma-1 receptor agonist compounds” (MTA TÁMOGATOTT KUTATÓCSOPORTOK IRODÁJA, priority 2014, dated 2020)

Test system: Streptozotocin induced type 1 diabetic rats
Assay: Rat model of streptozotocin induced diabetic nephropathy: metabolic and renal parameters
Format: in vivo
Details: for Blood Creatinine / Blood Glucose / Blood Urea Nitrogen / FeNa / Fructosamine / GFR / Urinary albumin excretion: Mean±SEM
Protocol: All substances were purchased from Sigma-Aldrich Ltd. (Budapest, Hungary). Diabetes was induced in male Wistar rats by 65 mg/bwkg streptozotocin (STZ) i.v. (dissolved in 0.1 M citrate buffer; pH 4.5). Animals were considered diabetic if blood glucose concentrations increased to 15 mmol/L within 72 h after STZ injection and remained elevated. Animals were randomly divided into groups (n=10-12/group) and received by per os (i) fluvoxamine (20 mg/bwkg/day) for 7 weeks; (ii) fluvoxamine (20 mg/bwkg/day) for 2 weeks from the 5th week of diabetes, (iii) fluvoxamine (2 mg/bwkg/day) for 2 weeks from the 5th week of diabetes; or (iv) vehicle (isotonic saline). […] Non-diabetic age-matched control animals were injected with citrate buffer and sacrificed after 7 weeks (n=8-10/group).
Before and during and at the end of treatment period rats were placed into metabolic cages to collect 24-hour urinary samples. After 2 weeks of treatment all rats were anesthesized, blood and urinary samples were collected and the kidneys were removed, weighed and a section fixed in formalin (4%, pH=7.4) for histology and the remained immediately snap-frozen for further investigations.
Serum metabolic (glucose, fructoseamine, total and HDL-cholesterol, triglycerides) and renal functional parameters from rat serum (sodium, potassium, creatinine, BUN, GFR and proteinuria) were determined with commercially available kits on a Hitachi 912 photometric chemistry analyzer. Random urine and 24-hour urine samples were also measured. Urinary protein to creatinine ratio was also calculated.

[1] = D7FLU: diabetic rats, fluvoxamine 20 mg/bwkg/day per os for 7 weeks
[2] = D+FLU2: diabetic rats, fluvoxamine 2 mg/bwkg/day per os for 2 weeks from the 5th week of diabetes
[3] = D+FLU: diabetic rats, fluvoxamine 20 mg/bwkg/day per os for 2 weeks from the 5th week of diabetes

## COCCCC/C(=N\OCCN)c1ccc(C(F)(F)F)cc1 [fluvoxamine, 2-{[(E)-{5-Methoxy-1-[4-(trifluoromethyl)phenyl]pentylidene}amino]oxy}ethanamine]
[1]
  Blood Creatinine: 27.0 ± 2.24 µmol/L
  Blood Glucose: 50.31 ± 3.7 ^ mmol/L
  Blood Urea Nitrogen: 17.3 ± 1.49 mmol/L
  FeNa: 0.40 ± 0.03 %
  Fructosamine: 276 ± 11.2 µmol/L
  GFR: 6.77 ± 1.15 mL/min/100 g
  Urinary albumin excretion: 20.8 ± 9.51 mg/mL
[2]
  Blood Creatinine: 31.8 ± 2.94 µmol/L
  Blood Glucose: 26.45 ± 3.11 mmol/L
  Blood Urea Nitrogen: 18.8 ± 1.68 mmol/L
  FeNa: 0.62 ± 0.12 %
  Fructosamine: 242 ± 12.8^ μmol/L
  GFR: 4.73 ± 0.69^ mL/min/100 g
  Urinary albumin excretion: 24.3 ± 5.77^ mg/mL
[3]
  Blood Creatinine: 34.5 ± 2.74 µmol/L
  Blood Glucose: 36.6 ± 2.62 mmol/L
  Blood Urea Nitrogen: 17.3 ± 2.30 mmol/L
  FeNa: 0.90 ± 0.23 %
  Fructosamine: 252 ± 18.5^ μmol/L
  GFR: 3.73 ± 0.49^ mL/min/100 g
  Urinary albumin excretion: 21.5 ± 4.99 mg/mL
Fluvoxamine treatment, specifically the long-term (7-weeks) treatment
  renal function in diabetic rats: remarkably improved renal function, prevented GFR decline
